Laboratory results taken from patent US7834024B2, “Compositions and methods for inhibition of the JAK pathway” (Rigel Pharmaceuticals, Inc., priority 2007, dated 2010).
Where a name gives a salt, the structure may show the parent alone.

The compounds below were run on Ramos B-Cell Line Stimulated with IL-4 (JAK-1 and JAK-3 / Stat-6, CD23) (assay: Assay for Ramos B-Cell Line Stimulated with IL-4 (CD23 upregulation, FACS)). Details: Homo sapiens, Ramos, human Ramos B cells, compound 1 hour, IL-4 50 units/mL for 20-24 hours, anti-CD23-PE FACS; read-out: Example 2 (IC50).
Assay type: cell-based
How it was run: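 Human Ramos B cells (5×10^4 per point, RPMI with 5% serum) pre-incubated 1 hour at 37° C with compound or DMSO, then stimulated with IL-4 at 50 units/mL final for 20-24 hours. CD23 upregulation measured by flow cytometry.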

| Compound | IC50 [µM] |
| --- | --- |
| Cc1cc(Nc2nc(Nc3cccc(C(N)=O)c3)ncc2F)cc(C)c1OCC#N [Compound I-91, N2-(3-Aminocarbonylphenyl)-N4-(4-cyanomethoxy-3,5-dimethylphenyl)-5-fluoro-2,4-pyrimidinediamine] | 0.333 |
| CC(C)(C#N)Oc1ccc(Nc2nc(Nc3ccc(CC#N)cc3)ncc2F)cc1 [Compound I-83, N4-[4-(1-Cyano-1-methylethoxy)phenyl]-N2-(4-cyanomethylphenyl)-5-fluoro-2,4-pyrimidinediamine] | 0.424 |
| Cc1cc(Nc2nc(Nc3ccc(CC#N)cc3)ncc2F)cc(C)c1OC(C)C#N (centres unmarked) [Compound I-97, N4-[4-(1-Cyanoethoxy)-3,5-dimethylphenyl]-N2-(4-cyanomethylphenyl)-5-fluoro-2,4-pyrimidinediamine] | 0.155 |
| N#CCc1ccc(Nc2ncc(F)c(Nc3ccc(F)c(Cl)c3)n2)cc1 [Compound I-117, N4-(3-Chloro-4-fluorophenyl)-N2-(4-cyanomethylphenyl)-5-fluoro-2,4-pyrimidinediamine] | 6.71 |
| NC(=O)COc1cccc(Nc2nc(Nc3cccc(C(N)=O)c3)ncc2F)c1 [Compound I-33, N4-(3-Aminocarbonylmethoxyphenyl)-N2-(3-aminocarbonylphenyl)-5-fluoro-2,4-pyrimidinediamine] | 3.05 |

Now from value to compound:

| IC50 [µM] | Compound |
| --- | --- |
| 0.382 | N#CCc1ccc(Nc2ncc(F)c(Nc3ccc(Cc4ccncc4)cc3)n2)cc1 [Compound I-131, N2-(4-Cyanomethylphenyl)-5-fluoro-N4-[4-(4-pyridinylmethyl)phenyl]-2,4-pyrimidinediamine] |
| 0.326 | N#Cc1cccc(Nc2ncc(F)c(Nc3cccc(OCC(N)=O)c3)n2)c1 [Compound I-35, N4-(3-Aminocarbonylmethoxyphenyl)-N2-(3-cyanophenyl)-5-fluoro-2,4-pyrimidinediamine] |
| 1.8 | CCc1cc(Nc2ncc(F)c(Nc3ccc(OCC#N)c(Cl)c3)n2)cc(C#N)c1Cl [Compound I-108, N2-(4-Chloro-3-cyano-5-ethylphenyl)-N4-(3-chloro-4-cyanomethoxyphenyl)-5-fluoro-2,4-pyrimidinediamine] |
| 1.15 | C#CCOc1ccc(Nc2nc(Nc3cccc(C(N)=S)c3)ncc2F)cc1 [Compound I-5, N2-(3-Aminocarbonothioylphenyl)-5-fluoro-N4-[4-(2-propynyloxy)phenyl]-2,4-pyrimidinediamine] |
| 0.331 | Cc1cc(Nc2nc(Nc3cccc(C(N)=O)c3)ncc2F)ccc1OC(C)C#N (centres unmarked) [Compound I-93, N2-(3-Aminocarbonylphenyl)-N4-[4-(1-cyanoethoxy)-3-methylphenyl]-5-fluoro-2,4-pyrimidinediamine] |
| 0.429 | CN1CCN(c2ccc(Nc3ncc(F)c(Nc4ccc(CC#N)cc4)n3)cc2C(N)=O)CC1 [Compound I-74, N2-[3-Aminocarbonyl-4-(4-methylpiperazin-1-yl)phenyl]-N4-(4-cyanomethylphenyl)-5-fluoro-2,4-pyrimidinediamine] |
| 0.0629 | CN1CCOc2cc(Nc3nc(Nc4ccc(C(N)=O)cc4)ncc3F)ccc21 [II-3, N2-(4-Aminocarbonylphenyl)-N4-(3,4-dihydro-4-methyl-2H-benzo[1,4]oxazin-7-yl)-5-fluoro-2,4-pyrimidinediamine] |
| 0.0191 | CN1CCN(c2ccc(Nc3ncc(F)c(Nc4cccc(OCC#N)c4)n3)cc2C(N)=O)CC1 [Compound I-54, N2-[3-Aminocarbonyl-4-(4-methylpiperazin-1-yl)phenyl]-N4-(3-cyanomethoxyphenyl)-5-fluoro-2,4-pyrimidinediamine] |
| 1.62 | N#CCc1ccc(Nc2nc(Nc3cccc(C(N)=O)c3)ncc2F)cc1 [Compound I-68, N2-(3-Aminocarbonylphenyl)-N4-(4-cyanomethylphenyl)-5-fluoro-2,4-pyrimidinediamine] |
| 0.15 | COc1ccc(Nc2nc(Nc3ccc4oc(C(=O)NCCN5CCOCC5)cc4c3)ncc2F)cc1Cl [III-1, N4-(3-Chloro-4-methoxyphenyl)-5-fluoro-N2-[2-(2-(N-morpholinyl)ethylaminocarbonyl)benzofuran-5-yl]-2,4-pyrimidinediamine] |
| 0.173 | N#CCOc1cccc(Nc2nc(Nc3cccc(C#N)c3)ncc2F)c1 [Compound I-47, N4-(3-Cyanomethoxyphenyl)-N2-(3-cyanophenyl)-5-fluoro-2,4-pyrimidinediamine] |
| 0.42 | NC(=O)COc1ccc(Nc2nc(Nc3ccc(C(N)=O)cc3)ncc2F)cc1 [Compound I-25, N4-(4-Aminocarbonylmethoxyphenyl)-N2-(4-aminocarbonylphenyl)-5-fluoro-2,4-pyrimidinediamine] |
| 0.142 | Cc1cc(Nc2nc(Nc3ccc(CC#N)cc3)ncc2F)ccc1OCC#N [Compound I-86, N4-(4-Cyanomethoxy-3-methylphenyl)-N2-(4-cyanomethylphenyl)-5-fluoro-2,4-pyrimidinediamine] |
| 0.278 | N#CCc1ccc(Nc2ncc(F)c(Nc3ccc(OCC(N)=O)cc3)n2)cc1 [Compound I-76, N4-(4-Aminocarbonylmethoxyphenyl)-N2-(4-cyanomethylphenyl)-5-fluoro-2,4-pyrimidinediamine] |
| 1.43 | CCc1cc(Nc2ncc(F)c(Nc3ccc4c(c3)NC(=O)C(C)(C)O4)n2)cc(C#N)c1Cl [II-25, N2-(4-Chloro-3-cyano-5-ethylphenyl)-N4-(2,2-dimethyl-3-oxo-4H-benzo[1,4]oxazin-6-yl)-5-fluoro-2,4-pyrimidinediamine] |

Same assay, conditions: human Ramos B cells, compound 1 hour, IL-4 50 units/mL for 20-24 hours, anti-CD23-PE FACS; read-out: Example 2 (IC50)

| Compound | IC50 [µM] |
| --- | --- |
| Cc1cnc(Nc2cccc(C(N)=O)c2)nc1Nc1ccc2c(c1)NC(=O)CO2 [II-38, N2-(3-Aminocarbonylphenyl)-N4-(3,4-dihydro-2H-3-oxo-4H-benz[1,4]oxazin-6-yl)-5-methyl-2,4-pyrimidinediamine] | 0.177 |
| NC(=O)c1cccc(Nc2ncc(F)c(Nc3ccc(OCc4ccccn4)cc3)n2)c1 [Compound I-133, N2-(3-Aminocarbonylphenyl)-5-fluoro-N4-[4-(2-pyridinylmethyleneoxy)phenyl]-2,4-pyrimidinediamine] | 1.56 |
| CCN(CC)CCNC(=O)c1ccc(Nc2ncc(F)c(Nc3cccc(OCc4nc(C)no4)c3)n2)cc1 [Compound I-125, N2-[4-(2-(N,N-Diethylamino)ethylaminocarbonyl)phenyl]-5-fluoro-N4-[3-(3-methyl-1,2,4-oxadiazol-5-yl)methyleneoxyphenyl]-2,4-pyrimidinediamine] | 0.103 |
| CCn1nccc1NC(=O)c1ccc(Nc2ncc(F)c(Nc3ccc(OC)c(Cl)c3)n2)cc1 [Compound I-3, N4-(3-Chloro-4-methoxyphenyl)-N2-[4-((I-ethyl-1H-pyrazol-5-yl)aminocarbonyl)phenyl]-5-fluoro-2,4-pyrimidinediamine] | 0.119 |
| Cc1noc(COc2ccc(Nc3nc(Nc4ccc(C(N)=O)cc4)ncc3F)cc2)n1 [Compound I-10, N2-(4-Aminocarbonylphenyl)-5-fluoro-N4-[4-((3-methyl-1,2,4-oxadiazol-5-yl)methyleneoxy)phenyl]-2,4-pyrimidinediamine Hydrogen Chloride Salt] | 0.00485 |
| CCN(CC)CCNC(=O)c1ccc(Nc2ncc(F)c(Nc3ccc(OCc4ccccn4)cc3)n2)cc1 [Compound I-135, N2-[4-(2-(N,N-Diethylamino)ethylaminocarbonyl)phenyl)-5-fluoro-N4-[4-(2-pyridinylmethyleneoxy)phenyl]-2,4-pyrimidinediamine] | 0.056 |
| Cc1nc(COc2ccc(Nc3nc(Nc4ccc(C(=O)N5CCN(C)CC5)cc4)ncc3F)cc2)no1 [Compound I-60, 5-Fluoro-N4-[4-((5-methyl-1,2,4-oxadiazol-3-yl)methoxy)phenyl]-N2-[4-((4-methylpiperazin-1-yl)carbonyl)phenyl]-2,4-pyrimidinediamine] | 0.421 |
| CNC(=O)COc1cccc(Nc2ncc(Br)c(Nc3ccc(OC)c(Cl)c3)n2)c1 [Compound I-1, 5-Bromo-N4-(3-chloro-4-methoxyphenyl)-N2-[3-(N-methylaminocarbonylmethyleneoxy)phenyl]-2,4-pyrimidinediamine] | 0.123 |
| CN1CCN(C(=O)c2ccc(Nc3ncc(F)c(Nc4cccc(OCC#N)c4)n3)cc2)CC1 [Compound I-52, N4-(3-Cyanomethoxyphenyl)-5-fluoro-N2-[4-((4-methylpiperazin-1-yl)carbonyl)phenyl]-2,4-pyrimidinediamine] | 0.289 |
| CC(C#N)Oc1ccc(Nc2nc(Nc3cccc(C#N)c3)ncc2F)cc1 (centres unmarked) [Compound I-80, N4-[4-(I-Cyanoethoxy)phenyl]-N2-(3-cyanophenyl)-5-fluoro-2,4-pyrimidinediamine] | 0.189 |

Next, values leading:

| IC50 [µM] | Compound |
| --- | --- |
| 0.0873 | CNC(=O)COc1cc(Nc2ncc(C)c(Nc3ccc4c(n3)NC(=O)C(C)(C)O4)n2)cc(OC)c1OC [II-35, N2-[3,4-Dimethoxy-5-(N-methylaminocarbonylmethoxy)phenyl]-N4-(2,2-dimethyl-3-oxo-4H-5-pyrido[1,4]oxazin-6-yl)-5-methyl-2,4-pyrimidinediamine] |
| 0.229 | Cc1cnc(Nc2cccc(C(N)=O)c2)nc1Nc1ccc2c(n1)N(C)C(=O)C(C)(C)O2 [II-43, N2-(3-Aminocarbonylphenyl)-5-methyl-N4-(2,2,4-trimethyl-3-oxo-5-pyrido[1,4]oxazin-6-yl)-2,4-pyrimidinediamine] |
| 0.11 | CNC(=O)COc1cc(Nc2ncc(F)c(Nc3ccc4c(c3)NC(=O)CO4)n2)cc(OC)c1OC [II-22, N2-[4,5-Dimethoxy-3-(N-methylaminocarbonylmethyleneoxy)phenyl]-5-fluoro-N4-(3-oxo-2H,4H-benzo[1,4]oxazin-6-yl)-2,4-pyrimidinediamine] |
| 0.723 | N2-(4-Cyanomethyl phenyl)-5-fluoro-N4-(5-methoxycarbonylthiophen-2-yl)-2,4-pyrimidinediamine [Compound I-122] |
| 0.48 | CNC(=O)COc1cc(Nc2ncc(F)c(Nc3ccc4c(c3)NC(=O)C(F)(F)O4)n2)cc(OC)c1OC [II-20, N4-(2,2-Difluoro-3-oxo-4H-benzo[1,4]oxazin-6-yl)-N2-[4,5-Dimethoxy-3-(N-methylaminocarbonylmethyleneoxy)phenyl]-5-fluoro-2,4-pyrimidinediamine] |
